Experimental data reported in ChEMBL document CHEMBL4028802, “DILIrank: the largest reference drug list ranked by the risk for developing drug-induced liver injury in humans” (Drug Discov Today, 2016).
Non-standard residues stand in square brackets, D forms with d. Residues, ends and D or L forms follow the SMILES beside them. dPhe(4-Cl) = N[C@H](Cc1ccc(Cl)cc1)C(=O)O; d2Nal = N[C@H](Cc1ccc2ccccc2c1)C(=O)O; dCit = NC(=O)NCCC[C@@H](N)C(=O)O; d3Pal = N[C@H](Cc1cccnc1)C(=O)O

How the values were obtained:
Homo sapiens [1] = organism: Homo sapiens; experiment: Liver toxicity in human assessed as induction of drug-induced liver injury by measuring severity class index
Homo sapiens [2] = organism: Homo sapiens; experiment: Liver toxicity in human assessed as induction of drug-induced liver injury by measuring verified drug-induced liver injury concern status
Wherever DILI severity class is given: key of the grades not given here.

SMILES | DILI_severity_class (Homo sapiens [1]) | DILI_Concern (Homo sapiens [2])
Cc1c(O)cccc1C(=O)N[C@@H](CSc1ccccc1)[C@H](O)CN1C[C@H]2CCCC[C@H]2C[C@H]1C(=O)NC(C)(C)C | 3 | Less-Dili-Concern
Cc1c(C)c2c(c(C)c1O)CCC(C)(COc1ccc(CC3SC(=O)NC3=O)cc1)O2 (configuration not stated) [TROGLITAZONE] | 8 | Most-Dili-Concern
CCC[C@H](N[C@@H](C)C(=O)N1[C@H](C(=O)O)C[C@@H]2CCCC[C@@H]21)C(=O)OCC [PERINDOPRIL] | 3 | Ambiguous-Dili-Concern
NCCc1ccc(O)c(O)c1 [DOPAMINE] | 0 | No-Dili-Concern
C1CNCCN1.C[C@]12CC[C@@H]3c4ccc(OS(=O)(=O)O)cc4CC[C@H]3[C@@H]1CCC2=O [ESTROPIPATE] | 2 | Ambiguous-Dili-Concern
CC(=O)CC(c1ccccc1)c1c(O)c2ccccc2oc1=O (configuration not stated) [WARFARIN] | 5 | Less-Dili-Concern
O=C(O)c1cc(=O)c2cc(OCC(O)COc3cccc4oc(C(=O)O)cc(=O)c34)ccc2o1 (configuration not stated) | 3 | 
CNC(=C[N+](=O)[O-])NCCSCc1csc(CN(C)C)n1 [NIZATIDINE] | 5 | Less-Dili-Concern
CN(C)CC[C@@H](c1ccc(Br)cc1)c1ccccn1 [DEXBROMPHENIRAMINE] | 0 | No-Dili-Concern
CS(=O)(=O)O.C[C@H](N)C(=O)N[C@@H](C)C(=O)N[C@H]1[C@@H]2CN(c3nc4c(cc3F)c(=O)c(C(=O)O)cn4-c3ccc(F)cc3F)C[C@@H]21 [ALATROFLOXACIN MESYLATE] | 8 | Most-Dili-Concern
CN1[C@@H]2CC[C@H]1C[C@@H](OC(c1ccccc1)c1ccccc1)C2 [BENZTROPINE] | 0 | No-Dili-Concern
COc1ccc2cc(CCC(C)=O)ccc2c1 [NABUMETONE] | 3 | Ambiguous-Dili-Concern
CCCCc1ncc(/C=C(\Cc2cccs2)C(=O)O)n1Cc1ccc(C(=O)O)cc1 [EPROSARTAN] | 3 | Ambiguous-Dili-Concern
Cc1[nH]cnc1CN1CCc2c(c3ccccc3n2C)C1=O [ALOSETRON] | 4 | Less-Dili-Concern
CN[C@@H](C)[C@@H](O)c1ccccc1 [PSEUDOEPHEDRINE] | 0 | No-Dili-Concern
CCCc1nc2c(C)cc(-c3nc4ccccc4n3C)cc2n1Cc1ccc(-c2ccccc2C(=O)O)cc1 | 3 | Less-Dili-Concern
Cc1ncc(CO)c(CO)c1O [PYRIDOXINE] | 0 | No-Dili-Concern
N#C[C@@H]1C[C@@H]2C[C@@H]2N1C(=O)[C@@H](N)C12CC3CC(CC(O)(C3)C1)C2 [SAXAGLIPTIN ANHYDROUS] | 0 | No-Dili-Concern
O=C1CN(/N=C/c2ccc(-c3ccc([N+](=O)[O-])cc3)o2)C(O)=N1 [DANTROLENE] | 8 | Most-Dili-Concern

SMILES | DILI_severity_class (Homo sapiens [1]) | DILI_Concern (Homo sapiens [2])
CC(C)C[C@H](NC(=O)[C@H](Cc1ccccc1)NC(=O)c1cnccn1)B(O)O [BORTEZOMIB] | 7 | Most-Dili-Concern
OC[C@H]1O[C@@H](O[C@@H]2[C@@H](CO)O[C@](O)(CO)[C@H]2O)[C@H](O)[C@@H](O)[C@H]1O [LACTULOSE] | 0 | No-Dili-Concern
NS(=O)(=O)c1cc(Cl)c(Cl)c(S(N)(=O)=O)c1 [DICHLORPHENAMIDE] | 0 | No-Dili-Concern
O[C@@H](c1cc(C(F)(F)F)nc2c(C(F)(F)F)cccc12)[C@H]1CCCCN1 [(S,R)-MEFLOQUINE] | 7 | Less-Dili-Concern
Cc1nc(Nc2ncc(C(=O)Nc3c(C)cccc3Cl)s2)cc(N2CCN(CCO)CC2)n1.O [DASATINIB] | 4 | Less-Dili-Concern
COc1cc2nc(N(C)CCCNC(=O)C3CCCO3)nc(N)c2cc1OC (configuration not stated) [ALFUZOSIN] | 5 | Less-Dili-Concern
NC(CO)(CO)CO [TROMETHAMINE] | 6 | Ambiguous-Dili-Concern
CN[C@H](CC(C)C)C(=O)N[C@H]1C(=O)N[C@@H](CC(N)=O)C(=O)N[C@H]2C(=O)N[C@H]3C(=O)N[C@H](C(=O)N[C@H](C(=O)O)c4cc(O)cc(O)c4-c4cc3ccc4O)[C@H](O)c3ccc(c(Cl)c3)Oc3cc2cc(c3O[C@@H]2O[C@H](CO)[C@@H](O)[C@H](O)[C@H]2O[C@H]2C[C@](C)(N)[C@H](O)[C@H](C)O2)Oc2ccc(cc2Cl)[C@H]1O [VANCOMYCIN] | 0 | Less-Dili-Concern
C[C@H](N)Cc1ccccc1 [DEXTROAMPHETAMINE] | 0 | No-Dili-Concern
Cc1cccc(C)c1OCC(C)N (configuration not stated) [MEXILETINE] | 3 | Most-Dili-Concern
CCC(C)CCCCC(=O)N[C@@H](CCNCS(=O)(=O)O)C(=O)N[C@H](C(=O)N[C@@H](CCNCS(=O)(=O)O)C(=O)N[C@H]1CCNC(=O)[C@H]([C@@H](C)O)NC(=O)[C@H](CCNCS(=O)(=O)O)NC(=O)[C@H](CCNCS(=O)(=O)O)NC(=O)[C@H](CC(C)C)NC(=O)[C@@H](CC(C)C)NC(=O)[C@H](CCNCS(=O)(=O)O)NC1=O)[C@@H](C)O (some centres not stated) | 0 | No-Dili-Concern
C[C@]12C/C(=C/O)C(=O)C[C@@H]1CC[C@@H]1[C@@H]2CC[C@@]2(C)[C@H]1CC[C@]2(C)O [OXYMETHOLONE] | 7 | Most-Dili-Concern
O=C(O)c1cn(C2CC2)c2cc(N3CCNCC3)c(F)cc2c1=O [CIPROFLOXACIN] | 7 | Most-Dili-Concern
CCCCC(F)(F)[C@@]1(O)CC[C@H]2[C@@H](CC(=O)[C@@H]2CCCCCCC(=O)O)O1 [LUBIPROSTONE] | 0 | No-Dili-Concern
C[n+]1ccccc1/C=N/O [PRALIDOXIME] | 3 | Ambiguous-Dili-Concern
CC(=O)N[C@H](Cc1ccc2ccccc2c1)C(=O)N[C@H](Cc1ccc(Cl)cc1)C(=O)N[C@H](Cc1cccnc1)C(=O)N[C@@H](CO)C(=O)N[C@@H](Cc1ccc(O)cc1)C(=O)N[C@H](CCCNC(N)=O)C(=O)N[C@@H](CC(C)C)C(=O)N[C@@H](CCCNC(=N)N)C(=O)N1CCC[C@H]1C(=O)N[C@H](C)C(N)=O [CETRORELIX] (Ac-[d2Nal][dPhe(4-Cl)][d3Pal]SY[dCit]LRP[dA]-NH2) | 3 | Ambiguous-Dili-Concern
Nc1nc(F)nc2c1ncn2[C@@H]1O[C@H](COP(=O)(O)O)[C@@H](O)[C@@H]1O [FLUDARABINE PHOSPHATE] | 0 | No-Dili-Concern
CCC(=O)O[C@@H](O[P@](=O)(CCCCc1ccccc1)CC(=O)N1C[C@H](C2CCCCC2)C[C@H]1C(=O)O)C(C)C [FOSINOPRIL] | 3 | Less-Dili-Concern
COc1cc2c(c(OC)c1OC)-c1ccc(OC)c(=O)cc1[C@@H](NC(C)=O)CC2 [COLCHICINE] | 6 | Ambiguous-Dili-Concern

SMILES | DILI_severity_class (Homo sapiens [1]) | DILI_Concern (Homo sapiens [2])
CCCCc1nc(Cl)c(CO)n1Cc1ccc(-c2ccccc2-c2nn[nH]n2)cc1 [LOSARTAN] | 4 | Less-Dili-Concern
Cc1nnc(SCC2=C(C(=O)O)N3C(=O)[C@@H](NC(=O)Cn4cnnn4)[C@H]3SC2)s1 [CEFAZOLIN] | 3 | Less-Dili-Concern
COc1ccc2c3c1O[C@H]1C(=O)CC[C@@]4(O)[C@@H](C2)N(C)CC[C@]314 [OXYCODONE] | 0 | No-Dili-Concern
CCCN[C@H]1CCc2nc(N)sc2C1 [PRAMIPEXOLE] | 2 | Ambiguous-Dili-Concern
CNCC[C@@H](Oc1ccccc1C)c1ccccc1 [ATOMOXETINE] | 8 | Most-Dili-Concern
Nc1nc2c(c(=O)[nH]1)N(C=O)C(CNc1ccc(C(=O)N[C@@H](CCC(=O)O)C(=O)O)cc1)CN2 (some centres not stated) [LEUCOVORIN] | 0 | No-Dili-Concern
CC12CC3CC(C)(C1)CC(N)(C3)C2 [MEMANTINE] | 7 | Less-Dili-Concern
CC(C)(C)NCC(O)COc1cccc2c1CC(O)C(O)C2 (configuration not stated) [NADOLOL] | 3 | Ambiguous-Dili-Concern
C[C@]12CC[C@H]3[C@@H](CCC4=CC(=O)CC[C@@]43C)[C@@H]1CC[C@@H]2O [TESTOSTERONE] | 8 | Most-Dili-Concern
Cc1nnc(C(=O)NC(C)(C)c2nc(C(=O)NCc3ccc(F)cc3)c(O)c(=O)n2C)o1 | 7 | Most-Dili-Concern
CC(C)c1nc(N(C)S(C)(=O)=O)nc(-c2ccc(F)cc2)c1/C=C/[C@@H](O)C[C@@H](O)CC(=O)O [ROSUVASTATIN] | 3 | Less-Dili-Concern
CCCC(C)C1(CC)C(=O)NC(=O)NC1=O (configuration not stated) [PENTOBARBITAL] | 3 | Ambiguous-Dili-Concern
O=[N+]([O-])O[C@H]1CO[C@H]2[C@@H]1OC[C@H]2O[N+](=O)[O-] [ISOSORBIDE DINITRATE] | 0 | No-Dili-Concern
CC(C)[C@H](N)C(=O)OCC(CO)OCn1cnc2c(=O)nc(N)[nH]c21 (some centres not stated) [VALGANCICLOVIR] | 3 | Ambiguous-Dili-Concern
CN(C)CCCN1c2ccccc2CCc2ccccc21 [IMIPRAMINE] |  | Less-Dili-Concern
COc1ccc(CCN(C)CCCC(C#N)(c2ccc(OC)c(OC)c2)C(C)C)cc1OC (configuration not stated) |  | Less-Dili-Concern
CC(=O)Nc1ccc(O)cc1 [ACETAMINOPHEN] |  | Most-Dili-Concern
Clc1ccccc1CN1CCc2sccc2C1 [TICLOPIDINE] |  | Most-Dili-Concern
